Experimental data taken from PubChem BioAssay (NCI).
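Method: 48-hour compound exposure of cells in 96-well plates, five concentrations, linear interpolation of endpoints. At the TGI there is no net growth.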

Experiments:
Assay in all cases: inhibition of tumour cell growth, NCI panel, 48 h
NCI-H460 lung = tested on: NCI-H460 lung
RPMI-8226 leukemia = tested on: RPMI-8226 leukemia
BT-549 breast = tested on: BT-549 breast
SK-MEL-5 melanoma = tested on: SK-MEL-5 melanoma
SNB-75 CNS = tested on: SNB-75 CNS
ACHN renal = tested on: ACHN renal
HL-60(TB) leukemia = tested on: HL-60(TB) leukemia
KM12 colon = tested on: KM12 colon
MALME-3M melanoma = tested on: MALME-3M melanoma
SW-620 colon = tested on: SW-620 colon
MOLT-4 leukemia = tested on: MOLT-4 leukemia
OVCAR-8 ovarian = tested on: OVCAR-8 ovarian
HCT-116 colon = tested on: HCT-116 colon
T-47D breast = tested on: T-47D breast

Structure (SMILES)	TGI (NCI-H460 lung) [µM]	TGI (RPMI-8226 leukemia) [µM]	TGI (BT-549 breast) [µM]	TGI (SK-MEL-5 melanoma) [µM]	TGI (SNB-75 CNS) [µM]	TGI (ACHN renal) [µM]	TGI (HL-60(TB) leukemia) [µM]	TGI (KM12 colon) [µM]	TGI (MALME-3M melanoma) [µM]	TGI (SW-620 colon) [µM]	TGI (MOLT-4 leukemia) [µM]	TGI (OVCAR-8 ovarian) [µM]	TGI (HCT-116 colon) [µM]	TGI (T-47D breast) [µM]
COc1cc(/C=N/NC2=NCCCCN2)ccc1O	> 100	> 100	> 100	> 100	> 100	> 100	> 100	> 100	> 100	> 100	> 100	> 100	> 100	> 100
O=C1CC2SC(COCc3ccccc3)(CCN2Cc2ccccc2)C1 (stereo not drawn)	> 100	93.4	> 100	34.8	> 100	> 100	43	> 100	> 100	> 100	91.9	> 100	> 100	> 100
CCOC(=O)C(Cc1ccc(N(CCCl)CCCl)cc1)NC(=O)CCCN1C(=O)CN=C(c2ccccc2)c2cc(Cl)ccc21 (stereo not drawn)	> 100	20.7	> 100	25.2	51.3	22.5	7.51	> 100	7.71	> 62.3	> 100	> 100	> 100	11.2
COc1cc(C2c3c(ccc4ccccc34)C(=O)C3CCC(=O)N32)cc(OC)c1O (stereo not drawn)	> 25	> 25	> 25	–	> 25	> 25	> 25	> 25	–	> 25	> 25	> 25	> 25	> 25
O=C1C=CC2(C=C1)C[C@H](NC(=O)OCc1ccccc1)C(=O)O2	59.9	17.2	32.7	47.9	61.4	29.5	7.58	35.7	26.6	18.2	15.3	31.4	40.3	49.9
CC1CN=C(Nc2ccc(F)c(Cl)c2)S1 (stereo not drawn)	> 100	> 100	> 100	> 100	> 100	> 100	> 100	> 100	> 100	> 100	–	> 100	> 100	> 100
C1CN2CCNCCN(CCN1)CC2	> 100	> 100	> 100	> 100	> 100	> 100	> 100	> 100	> 100	> 100	> 100	> 100	> 100	> 100
S=C=NC1CCC(c2cc3ccccc3s2)(N2CCCCC2)CC1 (stereo not drawn)	3.54	–	6.55	2.94	4.2	3.34	3.09	3.95	3.04	–	1.01	–	3.58	25.3
CC1(C)OC(=O)C(Cc2ccccc2)(Cc2ccccc2)C(=O)O1	> 100	–	> 100	> 100	> 100	> 100	> 100	> 100	> 100	> 100	> 100	> 100	> 100	> 100
N/C(=N\S(=O)(=O)c1cc(Cl)c(Oc2ccc([N+](=O)[O-])cc2Cl)c(Cl)c1)Nc1ccc(Cl)cc1	40.1	–	32.3	31.3	35.2	30.5	39.6	36.6	> 100	45.9	34.2	31.9	34.3	34.2
COc1cc2ccc1OCc1cccc(n1)COc1ccc(cc1OC)C=NCCNCCN=C2	> 100	> 100	> 100	> 100	> 100	> 100	> 100	–	> 100	> 100	> 100	> 100	> 100	> 100
O=C1c2ccccc2C(=O)c2c(NCCCN3CCOCC3)ccc(NCCCN3CCOCC3)c21	4.61	42.8	21.6	6.79	10.7	19.5	> 100	20.5	27.7	28.1	19.8	14.1	10.4	83.9
O=P(O)(CN1CCN(CP(=O)(O)c2ccccc2)CCN(CP(=O)(O)c2ccccc2)CC1)c1ccccc1	> 100	> 100	> 100	> 100	> 100	> 100	> 100	> 100	> 100	> 100	> 100	> 100	> 100	> 100
Cc1ccc(N2C(N)=C(C#N)C(C#N)(C#N)C2c2ccccc2)cc1 (stereo not drawn)	–	32.1	23.5	20.9	28	28.2	6.15	33.6	27.8	15.2	8.27	40.2	14.4	21.4
C#CC1NC(=O)C1N(CC)CC (stereo not drawn)	> 100	> 100	> 100	> 100	> 100	> 100	> 100	> 100	> 100	> 100	> 100	> 100	> 100	> 100
O=Nc1c(O)cc(Nc2cccnc2)c2ccccc12	> 100	85	> 100	11.6	> 100	> 100	5.65	90.6	–	45.5	41.6	> 100	> 100	> 100
COC1=CC(=O)C2=C(C[C@@]3(C)C(=C2)C(CO)=CC[C@H]3O)C1=O	60.7	44.5	34	32.2	–	33.1	14.1	> 100	> 100	60.6	2.49	32.9	40.8	> 100

Structure (SMILES)	TGI (NCI-H460 lung) [µM]	TGI (RPMI-8226 leukemia) [µM]	TGI (BT-549 breast) [µM]	TGI (SK-MEL-5 melanoma) [µM]	TGI (SNB-75 CNS) [µM]	TGI (ACHN renal) [µM]	TGI (HL-60(TB) leukemia) [µM]	TGI (KM12 colon) [µM]	TGI (MALME-3M melanoma) [µM]	TGI (SW-620 colon) [µM]	TGI (MOLT-4 leukemia) [µM]	TGI (OVCAR-8 ovarian) [µM]	TGI (HCT-116 colon) [µM]	TGI (T-47D breast) [µM]
Nc1nc(=S)n(-c2ccc(Cl)cc2)c2nc3ccccc3cc12	> 100	> 100	67.1	> 100	97	> 100	> 100	> 100	> 100	> 100	–	> 100	> 100	> 100
COc1ccc(/C=C/C(=O)c2ccc(OC(=O)/C=C/c3ccccc3)cc2)cc1	97.8	24.7	> 58.3	> 70	> 82.2	> 100	33.7	26.4	> 100	98.9	50.6	> 83.2	40.4	62.8
Cc1cc2nc(N3C(=O)/C(=C/c4ccc(N(C)C)cc4)N=C3c3ccccc3)sc2cc1C	> 100	> 100	> 100	44.4	56.8	62.4	46.2	> 100	–	> 100	49.8	> 100	43	> 100
COc1cc2c[n+](C)c3c(c2cc1OC)Cc1cc2c(cc1-3)OCO2	–	> 100	> 100	> 100	> 100	–	> 100	> 100	> 100	> 100	> 100	> 100	> 100	> 100
O=C(NCCCN1CCN(CCCNC(=O)Nc2cccc3ccccc23)CC1)Nc1cccc2ccccc12	–	40	27.1	30.2	36.5	30.1	67.2	43.3	11.8	22.9	–	38.7	28	32.1
O=c1c2cc(I)ccc2nc(-c2cccs2)n1/N=C/c1ccccc1	> 100	> 100	> 100	> 100	> 100	> 100	> 100	> 100	–	> 100	–	> 100	> 100	> 100
[N-]=[N+]=CC(=O)CCC(=O)N(c1ccccc1)c1ccccc1	> 10	–	> 10	> 10	> 10	> 10	> 10	> 10	> 10	> 10	> 10	> 10	> 10	> 10
CC(=O)OCC1OC(n2nc(Cc3ccccc3)c(=S)[nH]c2=S)C(OC(C)=O)C(OC(C)=O)C1OC(C)=O (stereo not drawn)	> 100	–	41.7	> 100	39.8	> 100	27.2	40.2	83.9	> 100	> 100	58.4	47.1	60.2
CC(=O)/C(C=Nc1c(C)n(C)n(C)c1=O)=C(/O)c1ccccc1	> 50	> 50	> 50	> 50	–	> 50	> 50	–	> 50	> 50	> 50	–	> 50	> 50
COC(=O)C1=NN2c3ccccc3CN([C@@H](C)c3ccccc3)C(=O)[C@@H]2[C@H]1c1ccccc1	> 100	–	> 100	> 100	> 100	> 100	> 100	> 100	> 100	> 100	> 100	> 100	> 100	> 100
O=c1c2ccccc2[nH]c2c(Cl)cc(Cl)c(N3CCCCC3)c12	–	> 100	> 100	> 100	> 100	65.7	74.7	54.9	–	84.8	> 100	> 100	> 100	> 100
COC(=O)/C(C#N)=C(\N)c1c(C)c2ccccc2oc1=N	> 100	> 100	> 100	> 100	> 100	–	> 100	> 100	–	> 100	> 100	–	> 100	> 100
c1ccc([P+](c2ccccc2)(c2ccccc2)C2c3ccccc3-c3ccccc32)cc1	10.2	–	7.44	3.82	7.06	7.79	3.92	–	15.1	16.2	7.12	10.1	2.39	12.5
Cc1nnc(Sc2nc(C#N)c(C#N)nc2Sc2nnc(C)s2)s1	> 76.1	–	27.7	46.2	> 82.3	8.08	8.83	> 72	4.48	–	5.47	8.34	> 64.3	12.9
O=C1/C(=C/c2ccc(Cl)cc2)CSC/C1=C\c1ccc(Cl)cc1	30.5	5	4.99	10.6	–	12.6	3.69	4.47	36.9	13.4	9	13.8	3.69	23.2
Cc1c(F)c(NC(=O)CN(C)C)c2c(=O)cc(-c3ccc(NC(=O)CN(C)C)c(F)c3)oc2c1F	29	38.9	35.3	30.6	–	29.6	35.9	30.5	45.9	46.9	31.9	37.5	29.3	55.8
S=C(N1CCN(c2ccccc2)CC1)N1CCN(c2ccccc2)CC1	> 100	> 100	> 100	> 100	> 100	> 100	–	> 100	> 100	> 100	> 100	> 100	> 100	> 100
